Common to all, as to assay type: physicochemical
Data set [1] is described as follows: Solubility of PAG in organic solvents at 20° C. The note with it: for Solubility (w/w%) PGMEA: Propylene glycol monomethyl ether acetate; for Solubility (w/w%) GBL: γ-Butyrolactone; for solubility in the tested solvents: PGMEA, GBL; for Solubility (w/w%) Cyclohexanone / solubility in the tested solvents: cyclohexanone. An excerpt: Solubility is an important factor in the evaluation of a PAG. High solubility not only makes a PAG purified readily but also enables a PAG to be used for a wide range of concentrations in photoresists and in varied solvent systems. To test the solubility of a PAG, a solvent is slowly added until the PAG is completely dissolved and no turbidity is observed in the clear solution. Table 8 lists the solubility (w/w %) of some representative N-hydroxynaphthalimide sulfonate derivatives versus NIT in various organic solvents at 20° C.

The nature of data set [2]: Photolysis of PAGs in acetonitrile, irradiation at 365 nm (photoreactivity). As to conditions: for Solubility × Photoreactivity: solubility in PGMEA times relative photoreactivity at 365 nm. An excerpt: A photoresist composition typically comprises PAG, polymers, additives and solvents. The performance of a photoresist composition is mainly dependent on the properties of the PAG and polymer components. To formulate a high-performance photoresist composition, more photosensitive PAGs are typically selected. The photosensitivity of a PAG is typically directly related to the strength of the generated acid and the photoreactivity of the PAG. For a series of PAGs producing the same latent acid, their photosensitivity is related only to their photoreactivity. Thus evaluating the photosensitivity of a PAG can be achieved by studying its photoreactivity. The higher photoreactivity, the higher photosensitivity. The photoreactivity can be investigated by photolysis of a PAG in its dilute solution under low exposure intensity (to avoid side reactions which don't generate the desired acid). The change in the concentration of a PAG upon irradiation can be determined by measuring the absorbance of the PAG at the maximum absorption wavelength.
(§1) Photolysis of PAGs was carried out in acetonitrile in air at room temperature. The sodium salt of tetrabromophenol blue (TBPBNa), an acid indicator dye, which has a maximum absorption at 618 nm, was purchased from Aldrich (indicator grade) and used as received. Irradiation of the solution of the PAGs (3×10^−5 M) was performed using a Cole-Parmer UV 15 W bench lamp (EW-97605-50) at 365 nm. Light intensity was measured using an UV Power Puck II radiometer from EIT Inc. UV-Vis spectra were run on a Thermo Scientific Evolution 201 UV-visible spectrophotometer.
Photolysis of NIT, comparative compound A and B, T1, T2, T3, and T5 was examined in acetonitrile. […] The absorption band at 362 nm (λmax) gradually decreases upon irradiation, indicating the progress of photoreaction with the increase of exposure dose of energy. Assuming the photoreaction is first-order, a plot of the natural log of changes in absorbance with exposure dose of energy gives the photoreaction constant of T3 (i.e., the slope of the linear trendline) (FIG. 2). The photoreaction constants of other compounds were similarly determined under the same irradiation condition. Comparing the constants of A, B, T1, T2, T3, and T5 with that of NIT normalized to one gives the relative photoreactivity (Table 9). […] The formation of acid upon irradiation was confirmed by observing the spectral changes of the acid indicator, TBPBNa at 618 nm.

Data set [3] can be described thus: Solubility of PAG in organic solvents at 20° C. As to conditions: Table 9; Propylene glycol monomethyl ether acetate.
Data set [4] is described as follows: UV-Vis spectra in ACN. As to conditions: FIG. 4, in ACN (0.001% w/v). The protocol: FIG. 4 is a UV-Vis spectra of compounds NIT, T1, T2 and T5 in ACN (0.001% w/v).
as §1

On to `CCCCCCC#Cc1ccc2c3c(cccc13)C(=O)N(OS(=O)(=O)C(F)(F)C(F)(F)C(F)(F)C(F)(F)F)C2=O` [Compound T3], for which, in data set [1], the “Solubility (w/w%) PGMEA” value was 20.6% w/w%, the “Solubility (w/w%) Cyclohexanone” value worked out at 42.0% w/w% and the “Solubility (w/w%) GBL” value stood at 2.2% w/w%. Moreover, the “absorption band (λmax)” value in data set [2] (FIG. 1, acetonitrile, before irradiation at 365 nm) turned out to be 362 nm. For the same molecule, the “Solubility × Photoreactivity” value in data set [2] came to 198%. Also, the “Solubility (w/w%) in PGMEA” value in data set [3] is given as 20.6% w/w%.

With `CCCCCCC#Cc1ccc2c3c(cccc13)C(=O)N(OS(=O)(=O)C(F)(F)F)C2=O` [Compound T2], in data set [1], the “solubility in the tested solvents” value is “extremely high solubility”, the “Solubility (w/w%) PGMEA” value stood at 45.8% w/w%, the “Solubility (w/w%) Cyclohexanone” value worked out at 52.4% w/w% and the “Solubility (w/w%) GBL” value was determined as 23.1% w/w%. Besides, in data set [2], the “Solubility × Photoreactivity” value was determined as 394%. In data set [4], the “absorbance at i-line of a mercury lamp versus NIT” value is on record as “much larger than that of NIT” and the absorption maximum is recorded as 362 nm. In addition, the “Solubility (w/w%) in PGMEA” value in data set [3] is reported as 45.8% w/w%.

For the molecule `CCCCC#Cc1ccc2c3c(cccc13)C(=O)N(OS(=O)(=O)C(F)(F)C(F)(F)C(F)(F)C(F)(F)F)C2=O` [Compound T1], in data set [1], the “Solubility (w/w%) PGMEA” value is 8.3% w/w%, the “Solubility (w/w%) Cyclohexanone” value is recorded as 19.7% w/w% and the “Solubility (w/w%) GBL” value amounted to 1.5% w/w%. Besides, the “Solubility × Photoreactivity” value in data set [2] was determined as 77.2%. Further, in data set [4], the “absorbance at i-line of a mercury lamp versus NIT” value is recorded as “much larger than that of NIT” and the absorption maximum worked out at 362 nm. Moreover, the “Solubility (w/w%) in PGMEA” value in data set [3] turned out to be 8.3% w/w%.

Take `O=C1c2cccc3cccc(c23)C(=O)N1OS(=O)(=O)C(F)(F)F` [NIT, N-Hydroxynaphthalimide triflate, reference compound]: in data set [1], the “Solubility (w/w%) PGMEA” value was 1.7% w/w%, the “Solubility (w/w%) Cyclohexanone” value was 5.9% w/w% and the “Solubility (w/w%) GBL” value was found to be 2.2% w/w%. In data set [2], the “Solubility × Photoreactivity” value is on record as 1.7%. In data set [3], the “Solubility (w/w%) in PGMEA” value amounted to 1.7% w/w%.

In the case of `O=C1c2cccc3c(C#Cc4ccccc4)ccc(c23)C(=O)N1OS(=O)(=O)C(F)(F)F` [A, reference compound], in data set [1], the “Solubility (w/w%) PGMEA” value was 1.0% w/w%, the “Solubility (w/w%) Cyclohexanone” value was determined as 3.5% w/w% and the “Solubility (w/w%) GBL” value was 0.9% w/w%. Also, the “Solubility × Photoreactivity” value in data set [2] was determined as 2.5%. Further, in data set [3], the “Solubility (w/w%) in PGMEA” value is recorded as 1.0% w/w%.

Consider `CCCCC#Cc1ccc2c3c(cccc13)C(=O)N(OS(=O)(=O)C(F)(F)F)C2=O` [B, reference compound], for which, in data set [1], the “Solubility (w/w%) PGMEA” value was determined as 6.1% w/w%, the “Solubility (w/w%) Cyclohexanone” value was determined as 11.5% w/w% and the “Solubility (w/w%) GBL” value worked out at 2.3% w/w%. In addition, the “Solubility × Photoreactivity” value in data set [2] is on record as 48.8%. Also, in data set [3], the “Solubility (w/w%) in PGMEA” value came to 6.1% w/w%.

For the molecule `CCCC(=O)OCC#Cc1ccc2c3c(cccc13)C(=O)N(OS(=O)(=O)C(F)(F)F)C2=O` [Compound T5], in data set [1], the “solubility in the tested solvents” value was “extremely high solubility”, the “Solubility (w/w%) PGMEA” value came to 50.1% w/w%, the “Solubility (w/w%) Cyclohexanone” value is given as 55.4% w/w% and the “Solubility (w/w%) GBL” value was 32.4% w/w%. Besides, in data set [2], the “Solubility × Photoreactivity” value stood at 200%. Also, in data set [4], the “absorbance at i-line of a mercury lamp versus NIT” value is recorded as “much larger than that of NIT” and the absorption maximum amounted to 353 nm. Moreover, the “Solubility (w/w%) in PGMEA” value in data set [3] was 50.1% w/w%.

Source of the values: patent US9709886B2, “Sulfonic acid derivative compounds as photoacid generators in resist applications” (Heraeus Precious Metals North America Daychem LLC, priority 2015, dated 2017).
